Data set [1] addresses T1, canine COX-1 (Canis lupus familiaris, UniProt Q8HZR1).
T1 construct: from tissue; host or cells: washed platelets from donor dog blood
T1 sequence (Q8HZR1 28-603): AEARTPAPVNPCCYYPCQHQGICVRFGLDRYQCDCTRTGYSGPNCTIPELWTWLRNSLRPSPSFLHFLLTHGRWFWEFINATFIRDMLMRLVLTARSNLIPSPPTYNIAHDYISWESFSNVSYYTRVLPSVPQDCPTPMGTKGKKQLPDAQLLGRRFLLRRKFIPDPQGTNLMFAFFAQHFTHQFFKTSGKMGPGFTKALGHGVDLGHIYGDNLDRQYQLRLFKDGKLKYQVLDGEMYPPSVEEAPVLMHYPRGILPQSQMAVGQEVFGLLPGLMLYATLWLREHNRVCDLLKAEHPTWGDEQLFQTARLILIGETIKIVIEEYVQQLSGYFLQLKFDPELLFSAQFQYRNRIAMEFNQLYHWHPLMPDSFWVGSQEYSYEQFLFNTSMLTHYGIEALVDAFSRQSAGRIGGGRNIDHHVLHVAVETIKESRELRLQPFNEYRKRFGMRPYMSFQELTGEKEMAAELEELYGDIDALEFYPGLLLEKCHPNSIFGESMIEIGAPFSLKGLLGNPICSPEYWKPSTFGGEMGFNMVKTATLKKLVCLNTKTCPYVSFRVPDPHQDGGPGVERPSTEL
As to the kind of experiment: Canine COX-1 activity: washed canine platelets, A23187-stimulated TXB2 by EIA. Conditions: results of repeated tests averaged. It is filed as cell-based, dog. As for the experimental part: Protocol for Evaluation of Canine COX-1 Activity
Test drug compounds were solubilized and diluted the day before the assay was to be conducted with 0.1 mL of DMSO/9.9 mL of Hank's balanced salts solution (HBSS), and stored overnight at 4° C. On the day that the assay was carried out, citrated blood was drawn from a donor dog, centrifuged at 190×g for 25 min at room temperature, and the resulting platelet-rich plasma was then transferred to a new tube for further procedures. The platelets were washed by centrifuging at 1500×g for 10 min at room temperature. The platelets were washed with platelet buffer comprising Hank's buffer (Ca free) with 0.2% bovine serum albumin (BSA) and 20 mM HEPES. […] Then, 100 μl of canine washed platelets were added and the samples were incubated at 37° C. for 15 min, after which the reaction was stopped by adding 20 μl of 77 mM EDTA. The plates were then centrifuged at 2000×g for 10 min at […], after which 50 μl of supernatant was assayed for thromboxane B2 (TXB2) by enzyme-immunoassay (EIA).

Data set [2] deals with T2, COX-1 (Canis lupus familiaris, UniProt Q8HZR1).
T2 construct: using an ex vivo procedure on canine whole blood; from tissue; host or cells: whole blood of dosed dogs, stimulated with calcium ionophore A23187
T2 sequence (Q8HZR1 28-603): T1 sequence (Q8HZR1 28-603)
As to the kind of experiment: Canine whole blood ex vivo COX-1 activity (A23187-stimulated TXB2), Example 2. It counts as in vivo, dog. The conditions noted are these: for TXB2 Pg/mL/Well: group average; for inhibition at 2 mg/kg / inhibition at 10 mg/kg: dog, po, based on zero hour value, read-out: COX-1 activity Percent Inhibition. An excerpt: Plasma dilution was not factored in said data values.

Data set [3] deals with T2, COX-1. As to the kind of experiment: Ex vivo COX-1 whole blood assay (TXB2) run in the carrageenan study, Example 4. The conditions noted are these: 2 mg/kg PO, any of the timepoints tested. On the set-up: species or system dog. An excerpt:
The experiment was run in two replicates.
Table 5 illustrates that carrageenan induced almost a 4-fold increase in PGE2 synthesis in the whiffle ball over background levels.

For data set [4] the following is noted: dog, in vivo, po. As for the experimental part:
Following oral dosing to dogs of an immediate release carprofen formulation at a dose of 2 mg/lb, plasma carprofen concentrations were above 10 μg/mL for approximately 10.5 hr. In accordance with the present invention, 2 mg/lb/day is within the range of preferred doses of carprofen.
Immediate release carprofen dosage forms containing doses of 1.8, 1.6, and 1.4 mg/lb maintain a plasma carprofen concentration above 10 μg/mL for 9.5 hrs, 8.5 hrs, and 7.5 hrs, respectively.

A short description of data set [5]: Systemic clearance estimated from oral pharmacokinetics. It counts as in vivo, dog. The conditions noted are these: estimated from pharmacokinetics after oral 2 mg/lb to dogs, F assumed 1, AUC extrapolated to infinity. As to the method: where Css is the steady state plasma carprofen concentration, R0 is the input rate, and Cl is the systemic clearance.
where F is the bioavailability (assumed to be 1 for an implant), D is the oral dose, and AUC is the average area under the plasma carprofen concentration vs. time curve, extrapolated to infinity.
A total dose of 3.6 mg/lb or 8.4 mg/lb or 36 mg/lb would be required for 3, 7, or 30 day therapy, respectively. In summary, an implant containing 8.4 mg carprofen per lb body weight, releasing carprofen at a rate of 50 μg per lb of body weight per hr, maintains a plasma carprofen concentration of 10 μg/mL for 7 days. This will maintain 80% COX-2 inhibition for 7 days.

In data set [6] the target is T3, COX-1 (derived from bovine aortic endothelial cells) (Bos taurus, UniProt O62664).
T3 construct: COX-1 (derived from bovine aortic endothelial cells); host or cells: bovine aortic endothelial cells (endogenous)
T3 sequence (O62664 25-600): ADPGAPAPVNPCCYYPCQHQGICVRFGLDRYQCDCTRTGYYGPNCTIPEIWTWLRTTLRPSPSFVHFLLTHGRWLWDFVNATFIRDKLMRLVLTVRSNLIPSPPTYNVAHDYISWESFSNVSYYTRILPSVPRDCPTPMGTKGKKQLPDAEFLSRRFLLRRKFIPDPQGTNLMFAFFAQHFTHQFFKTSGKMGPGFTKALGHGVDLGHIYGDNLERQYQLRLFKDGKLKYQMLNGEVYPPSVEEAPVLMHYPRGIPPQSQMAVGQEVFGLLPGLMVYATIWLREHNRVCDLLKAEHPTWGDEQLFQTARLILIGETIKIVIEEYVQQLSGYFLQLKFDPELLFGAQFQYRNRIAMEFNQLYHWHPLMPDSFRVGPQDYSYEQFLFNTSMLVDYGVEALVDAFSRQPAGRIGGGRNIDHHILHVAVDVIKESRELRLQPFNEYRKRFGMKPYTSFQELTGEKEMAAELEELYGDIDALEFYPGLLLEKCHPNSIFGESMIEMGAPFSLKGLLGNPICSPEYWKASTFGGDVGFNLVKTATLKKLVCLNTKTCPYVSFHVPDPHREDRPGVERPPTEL
The conditions noted are these: cited from earlier work.

Where two headings read alike, the source gives them in different places.

As for `CC(C(=O)O)c1ccc2c(c1)[nH]c1ccc(Cl)cc12` (racemic) [Carprofen (rac.), 6-chloro-α-methyl-9H-carbazole-2-acetic acid], the IC50 is 13.2 µM in data set [1]; 11 µM in data set [6] (as shown by Battistini et al., read-out: IC50 (μM) COX-1); 11 µM in data set [6] (n=9, bovine aortic endothelial cells, read-out: IC50 (μg/mL) COX-1 (converted)). Besides, the “TXB2 Pg/mL/Well” value was determined as 72 Pg/mL/Well in data set [2] (2 mg/kg PO capsule, 0-hour (pre-dose)); 75 Pg/mL/Well in data set [2] (2 mg/kg PO capsule, 1-hour post-dose); 66 Pg/mL/Well in data set [2] (2 mg/kg PO capsule, 3-hour post-dose); 46 Pg/mL/Well in data set [2] (2 mg/kg PO capsule, 6-hour post-dose); 51 Pg/mL/Well in data set [2] (10 mg/kg PO capsule, 0-hour (pre-dose)); 31 Pg/mL/Well in data set [2] (10 mg/kg PO capsule, 1-hour post-dose). Moreover, the “TXB2 Pg/mL/Well” value is 6 Pg/mL/Well in data set [2] (10 mg/kg PO capsule, 3-hour post-dose) and 7 Pg/mL/Well in data set [2] (10 mg/kg PO capsule, 6-hour post-dose). Moreover, the inhibition at 2 mg/kg in data set [2] (2 mg/kg PO capsule, 1-hour) is 0%; in data set [2] (2 mg/kg PO capsule, 3-hour), 8%; in data set [2] (2 mg/kg PO capsule, 6-hour), 36%. The inhibition at 10 mg/kg in data set [2] (10 mg/kg PO capsule, 1-hour) stood at 39%; in data set [2] (10 mg/kg PO capsule, 3-hour) it was 88%; in data set [2] (10 mg/kg PO capsule, 6-hour) it was 86%. Also, the “ex vivo COX-1 inhibition of TXB2” value in data set [3] is recorded as “no inhibition of TXB2”. For the same compound, the “time plasma carprofen concentrations were above 10 μg/mL” value in data set [4] is on record as “approximately 10.5 hr”. The “systemic clearance Cl” value in data set [5] was 5 mL/hr per lb body weight.

The record behind these values is patent US20030212123A1, “COX-2 selective carprofen for treating pain and inflammation in dogs” (Pfizer Inc., priority 1997, published 2003).
